Reference: patent US12612424B2, “HPK1 inhibitors and uses thereof” (Regor Pharmaceuticals, Inc., priority 2019, dated 2026)

molecular target: HPK1 (Homo sapiens, UniProt Q92918); experiment: HPK1 biochemical assay (ADP-GLO Kinase Assay); details: B*: testing performed in a first testing facility; read-out: HPK1 IC50 (nM) Relative, B*
How it was run: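 HPK1 (0.6 ng/μL final) activity was followed with MBP substrate and 10 μM ATP in Tris pH 7.5/MgCl2/BSA/DTT buffer, measured by ADP-Glo luminescence. Compounds were tested as 3-fold dilutions from 10 μM. IC50 came from a three-parameter logistic fit, with inhibition normalised to high/low controls.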

Sequence of HPK1 (Q92918 whole entry): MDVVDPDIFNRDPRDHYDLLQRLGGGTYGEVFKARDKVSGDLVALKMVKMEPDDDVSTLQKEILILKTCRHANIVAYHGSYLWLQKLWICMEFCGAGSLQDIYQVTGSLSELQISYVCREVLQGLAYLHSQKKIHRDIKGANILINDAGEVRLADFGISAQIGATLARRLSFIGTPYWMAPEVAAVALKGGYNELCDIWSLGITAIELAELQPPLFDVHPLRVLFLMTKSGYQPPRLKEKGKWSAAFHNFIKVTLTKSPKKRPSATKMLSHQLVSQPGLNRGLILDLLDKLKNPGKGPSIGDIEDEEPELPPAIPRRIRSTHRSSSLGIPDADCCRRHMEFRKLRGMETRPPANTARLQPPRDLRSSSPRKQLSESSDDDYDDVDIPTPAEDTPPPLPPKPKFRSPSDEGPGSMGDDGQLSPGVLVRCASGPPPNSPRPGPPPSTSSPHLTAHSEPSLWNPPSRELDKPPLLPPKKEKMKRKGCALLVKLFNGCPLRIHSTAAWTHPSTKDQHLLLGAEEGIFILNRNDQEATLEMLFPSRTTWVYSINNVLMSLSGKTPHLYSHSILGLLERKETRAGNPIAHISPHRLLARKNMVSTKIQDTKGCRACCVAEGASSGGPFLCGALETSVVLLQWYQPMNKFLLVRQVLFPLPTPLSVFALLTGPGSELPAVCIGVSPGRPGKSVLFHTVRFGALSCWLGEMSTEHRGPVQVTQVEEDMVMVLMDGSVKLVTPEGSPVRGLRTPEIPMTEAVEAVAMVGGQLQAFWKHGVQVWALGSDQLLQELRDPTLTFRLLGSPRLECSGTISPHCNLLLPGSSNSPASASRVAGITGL

IC50, ≤ 100 nM:
COC(=O)C1CN(c2nc(Nc3cc4c(cc3OC)CCN(C)C4)ncc2C(F)F)c2ccccc21 (stereo not shown) [Example 112]
COc1cc2c(cc1Nc1ncc(Cl)c(-n3nc(C(=O)O)c4ccccc43)n1)CN(C)CC2 [Example 113]
COC(=O)C1CN(c2nc(Nc3cc4c(cc3OC)CCN(C)C4)ncc2Cl)c2ccccc21 (stereo not shown) [Example 115, Methyl 1-(5-chloro-2-((6-methoxy-2-methyl-1,2,3,4-tetrahydroisoquinolin-7-yl)amino)pyrimidin-4-yl)indoline-3-carboxylate]
COC(=O)C1(C)CN(c2nc(Nc3cc4c(cc3OC)CCN(C)C4)ncc2Cl)c2ccccc21 (stereo not shown) [Example 116]
COc1cc2c(cc1Nc1ncc(Cl)c(N3CC(C)(C(N)=O)c4ccccc43)n1)CN(C)CC2 (stereo not shown) [Example 120, 1-(5-Chloro-2-((6-methoxy-2-methyl-1,2,3,4-tetrahydroisoquinolin-7-yl)amino)pyrimidin-4-yl)-3-methylindoline-3-carboxamide]
COc1cc2c(cc1Nc1ncc(Cl)c(N3CC(C)(C#N)c4ccccc43)n1)CN(C)CC2 (stereo not shown) [Example 121, 1-(5-Chloro-2-((6-methoxy-2-methyl-1,2,3,4-tetrahydroisoquinolin-7-yl)amino)pyrimidin-4-yl)-3-methylindoline-3-carbonitrile]
CNC(=O)C1(C)CN(c2nc(Nc3cc4c(cc3OC)CCN(C)C4)ncc2Cl)c2ccccc21 (stereo not shown) [Example 122]
COc1cc2c(cc1Nc1ncc(Cl)c(N3CC(C)(CO)c4ccccc43)n1)CN(C)CC2 (stereo not shown) [Example 123]
COc1cc2c(cc1Nc1ncc(Cl)c(N3CC(C)(C(=O)O)c4cc(F)ccc43)n1)CN(C)CC2 (stereo not shown) [Example 125]
COc1cc2c(cc1Nc1ncc(Cl)c(N3CC(C)(C(=O)O)c4ccc(F)cc43)n1)CN(C)CC2 (stereo not shown) [Example 126]
COc1cc2c(cc1Nc1ncc(Cl)c(N3CC(CC(=O)O)c4ccccc43)n1)CN(C)CC2 (stereo not shown) [Example 128]
COc1cc2c(cc1Nc1ncc(Cl)c(-n3cc(CC(=O)O)c4ccccc43)n1)CN(C)CC2 [Example 129]
COc1cc2c(cc1Nc1ncc(Cl)c(-n3cc(CC(=O)OC(C)C)c4ccccc43)n1)CN(C)CC2 [Example 130, Isopropyl 2-(1-(5-chloro-2-((6-methoxy-2-methyl-1,2,3,4-tetrahydroisoquinolin-7-yl)amino)pyrimidin-4-yl)-1H-indol-3-yl)acetate]
COc1cc2c(cc1Nc1ncc(Cl)c(-n3cc(CC(N)=O)c4ccccc43)n1)CN(C)CC2 [Example 133]
COc1cc2c(cc1Nc1ncc(Cl)c(-n3cc(CC#N)c4ccccc43)n1)CN(C)CC2 [Example 134]
COc1cc2c(cc1Nc1ncc(Cl)c(-n3cc(Cc4nn[nH]n4)c4ccccc43)n1)CN(C)CC2 [Example 135, N-(4-(3-((2H-tetrazol-5-yl)methyl)-1H-indol-1-yl)-5-chloropyrimidin-2-yl)-6-methoxy-2-methyl-1,2,3,4-tetrahydroisoquinolin-7-amine]
CNC(=O)Cc1cn(-c2nc(Nc3cc4c(cc3OC)CCN(C)C4)ncc2Cl)c2ccccc12 [Example 136]
COc1cc2c(cc1Nc1ncc(Cl)c(-n3cc(CC(=O)NCC#N)c4ccccc43)n1)CN(C)CC2 [Example 137]
COc1cc2c(cc1Nc1ncc(Cl)c(-n3cc(CC(=O)O)c4cc(F)ccc43)n1)CN(C)CC2 [Example 138]
COc1cc2c(cc1Nc1ncc(Cl)c(-n3cc(CC(=O)O)c4ccc(F)cc43)n1)CN(C)CC2 [Example 139]
COc1cc2c(cc1Nc1ncc(Cl)c(-n3cc(CC(=O)O)c4cc(F)c(F)cc43)n1)CN(C)CC2 [Example 140]
COc1cc2c(cc1Nc1ncc(Cl)c(-n3nc(CC(=O)O)c4ccccc43)n1)CN(C)CC2 [Example 141]
COc1cc2c(cc1Nc1ncc(Cl)c(-n3cc(C(C)C(=O)O)c4ccccc43)n1)CN(C)CC2 (stereo not shown) [Example 142]
COC(=O)CC1(C)CN(c2nc(Nc3cc4c(cc3OC)CCN(C)C4)ncc2Cl)c2ccccc21 (stereo not shown) [Example 145]
COc1cc2c(cc1Nc1ncc(Cl)c(N3CC(C)(CC(=O)O)c4ccccc43)n1)CN(C)CC2 (stereo not shown) [Example 146]
CCOC(=O)CC1(C)CN(c2nc(Nc3cc4c(cc3OC)CCN(C)C4)ncc2Cl)c2ccccc21 (stereo not shown) [Example 149]
COc1cc2c(cc1Nc1ncc(Cl)c(N3CC(C)(CC(=O)O)c4cc(F)ccc43)n1)CN(C)CC2 (stereo not shown) [Example 150, 2-(1-(5-Chloro-2-((6-methoxy-2-methyl-1,2,3,4-tetrahydroisoquinolin-7-yl)amino)pyrimidin-4-yl)-5-fluoro-3-methylindolin-3-yl)acetic acid]
COc1cc2c(cc1Nc1ncc(Cl)c(N3CC(C)(CC(=O)O)c4ccc(F)cc43)n1)CN(C)CC2 (stereo not shown) [Example 151]
COc1cc2c(cc1Nc1ncc(Cl)c(N3CC(C)(CC(=O)O)c4cc(F)c(F)cc43)n1)CN(C)CC2 (stereo not shown) [Example 154]
CN1CCc2cc(F)c(Nc3ncc(Cl)c(N4CC(C)(CC(=O)O)c5ccccc54)n3)cc2C1 (stereo not shown) [Example 156]
CCN1CCc2cc(OC)c(Nc3ncc(Cl)c(N4CC(C)(CC(=O)O)c5ccccc54)n3)cc2C1 (stereo not shown) [Example 157, 2-(1-(5-Chloro-2-((2-ethyl-6-methoxy-1,2,3,4-tetrahydroisoquinolin-7-yl)amino)pyrimidin-4-yl)-3-methylindolin-3-yl)acetic acid]
COc1cc2c(cc1Nc1ncc(Cl)c(N3CC(C)(CC(=O)O)c4ccccc43)n1)CN(C(C)C)CC2 (stereo not shown) [Example 158, 2-(1-(5-Chloro-2-((2-isopropyl-6-methoxy-1,2,3,4-tetrahydroisoquinolin-7-yl)amino)pyrimidin-4-yl)-3-methylindolin-3-yl)acetic acid]
COc1cc2c(cc1Nc1ncc(Cl)c(N3CC(C)(CC(=O)O)c4ccccc43)n1)CN(C)C2 (stereo not shown) [Example 159, 2-(1-(5-Chloro-2-((6-methoxy-2-methylisoindolin-5-yl)amino)pyrimidin-4-yl)-3-methylindolin-3-yl)acetic acid]
COc1cc2c(cc1Nc1ncc(Cl)c(N3CC(C)(CC(=O)O)c4ccccc43)n1)CNCC2 (stereo not shown) [Example 160, 2-(1-(5-Chloro-2-((6-methoxy-1,2,3,4-tetrahydroisoquinolin-7-yl)amino)pyrimidin-4-yl)-3-methylindolin-3-yl)acetic acid methanesulfonic acid]
COc1cc2c(cc1Nc1ncc(Cl)c(-c3cn(CC(=O)O)c4ccccc34)n1)CN(C)CC2 [Example 161]
COc1cc2c(cc1Nc1ncc(Cl)c(-c3nn(CC(=O)O)c4ccccc34)n1)CN(C)CC2 [Example 162, 2-(3-(5-Chloro-2-((6-methoxy-2-methyl-1,2,3,4-tetrahydroisoquinolin-7-yl)amino)pyrimidin-4-yl)-1H-indazol-1-yl)acetic acid]
COc1cc2c(cc1Nc1nccc(N3CC(C(=O)O)c4ccccc43)n1)CN(C)CC2 (stereo not shown) [Example 163, 1-(2-((6-Methoxy-2-methyl-1,2,3,4-tetrahydroisoquinolin-7-yl)amino)pyrimidin-4-yl)indoline-3-carboxylic acid]
COc1cc2c(cc1Nc1ncc3cc(C#N)n(-c4ccccc4)c3n1)CN(C)CC2 [Example 164, 2-((6-Methoxy-2-methyl-1,2,3,4-tetrahydroisoquinolin-7-yl)amino)-7-phenyl-7H-pyrrolo[2,3-d]pyrimidine-6-carbonitrile]
COc1cc2c(cc1Nc1ncc(Cl)c(N3CC(C(=O)O)C4(CCCCC4)C3)n1)CN(C)CC2 (stereo not shown) [Example 167, 2-(5-Chloro-2-((6-methoxy-2-methyl-1,2,3,4-tetrahydroisoquinolin-7-yl)amino)pyrimidin-4-yl)-2-azaspiro[4.5]decane-4-carboxylic acid]
COc1cc2c(cc1Nc1ncc(Cl)c(N3CC(C(=O)O)C4(CCCC4)C3)n1)CN(C)CC2 (stereo not shown) [Example 169, 2-(5-Chloro-2-((6-methoxy-2-methyl-1,2,3,4-tetrahydroisoquinolin-7-yl)amino)pyrimidin-4-yl)-2-azaspiro[4.4]nonane-4-carboxylic acid]
